“Also recorded” adds a separate entry of the source.

This note sets out measurements from publication PMC5344539, “Nematode neuropeptides as transgenic nematicides” (PLoS Pathogens, 2017).

Assay [1] has as its system G. pallida J2s. Briefly: Tomato invasion assay with uNLP pre-treated J2s. It is filed as in vivo, Globodera pallida. The settings on record: Fig 2B; 500 J2s incubated in 100 μM uNLP for 24 h; single tomato seedling, 24 h at 18°C; normalised to negative control = 100%; mean. As for the experimental part:
(§1) Predicted uNLPs from both M. incognita and G. pallida were synthesised by EZBiolab and dissolved into pH adjusted ddH2O to make a 5 mM stock which was aliquoted and stored at -20°C. J2s of both M. incognita and G. pallida were incubated for 24 hours in 200 μl of each peptide in a 24 well plate (SPL Lifesciences, South Korea) at a defined concentration.
(§2) Tomato seeds were sterilised with 2.5% NaOCl for 15 minutes, washed 5 times in ddH20 and germinated on 0.5% Murashige and Skoog plates at 23°C. […] Invasion assays were performed by mixing 500 pre-treated M. incognita or G. pallida J2s with agar slurry and a single tomato seedling (2 days post germination) in a 6 well plate. Assays were left at 23°C for 24 hours in the case of M. incognita and at 18°C for 24 hours in the case of G. pallida under a 16 hour light and 8 hour darkness cycle. Seedlings were stained using acid fuschin [69] and the number of nematodes within the roots counted. At least five seedlings were used for M. incognita infections assays, with at least 15 seedlings used for G. pallida infections assays (due to increased variation).

The subject of assay [2] is G. pallida J2s. The assay is described as follows: Chemosensory (chemotaxis) assay of uNLP pre-treated J2s towards tomato root exudate. The class given is in vivo, Globodera pallida. To be noted: for CI score: Fig 2A, J2s incubated in 100 μM uNLP for 24 h, tomato cv. Moneymaker root exudate vs water agar plugs, counted after 3 h, mean of 10 replicates of 100 J2s, control 0.4154. As for the experimental part: as §1
(§3) A 60 mm Petri dish was divided into two segments, a positive and a negative side, with a 0.5 cm 'dead zone' either side of the centre point. The petri dish was filled with 15 ml of 0.25% w/v agar which was allowed to solidify. 3 ml of 0.25% w/v agar slurry in spring water (pH 7, agitated with a magnetic stirrer for several hours to give a smooth consistency) was added to the petri dish and spread evenly over the surface. Root diffusate (attractant) and water only (control) 0.25% agar plugs were embedded in the agar slurry, either side of the assay arena. Root diffusate was collected from 10 tomato plants, aged 3–6 weeks in 1 litre pots, by pouring 500 ml of ddH20 through the soil three times. Diffusate from each plant was combined, filter sterilised and stored at 4°C for a maximum of 1 month. Root diffusate agar plugs were made by melting 1.25% agar in ddH20, cooling to 50°C before mixing with 4 parts of root diffusate. The agar was then allowed to solidify at room temperature. 100 uNLP pre-treated M. incognita or G. pallida J2s were added by pipette to the centre of the plate. J2s which moved out of the 'dead zone' after 3 hours were counted and their location (+/-) scored. The distribution of J2s were used to create a chemotaxis index for each plate, which formed one replicate, a total of 10 replicates where completed for each uNLP treatment.

For a further assay, the system named is mixed-stage C. elegans. Briefly: C. elegans chemotaxis assay (non-target). It is filed as in vivo, Caenorhabditis elegans. The settings on record: worms soaked in 100 μM uNLP 24 h, counted after 1 h, 8 replicates. As for the experimental part:
C. elegans wild-type N2 Bristol strain were obtained from the C. elegans Genomics Center and maintained on a Escherichia coli (strain OP50) lawn on nematode growth medium (NGM) agar plates (3 g/l NaCl, 17 g/l agar, 2.5 g/l peptone, 5 mg/l cholesterol, 25 mM KH2PO4 (pH 6.0), 1 mM CaCl2, 1 mM MgSO4) at 20°C [70]. Chemotaxis assays were performed in a 9 cm diameter Petri dish on NGM agar which was split into a positive and negative side with a central ‘dead zone’ of 1.5 cm diameter. 100 mixed-staged C. elegans were washed three times in M9 buffer and soaked in 100 μM PPN uNLP, or M9 vehicle control for 24 hours. 2 μl of 50 mM sodium acetate, 0.5% pyrazine, 0.5% benzaldehyde or 0.5% diacetyl was spotted onto the positive side, 2 μl of ddH20 was spotted onto the negative side. Pyrazine, benzaldehyde and diacetyl volatile attractants were assayed immediately whereas the water soluble sodium acetate was assayed 18 hours following addition to the plate. Assays were maintained in the dark at 20°C, and counted after 1 hour. Eight replicates were conducted for each C. elegans attraction assay.

The subject of assay [3] is M. incognita J2s. Briefly: Serotonin-induced stylet thrusting assay. It is filed as in vivo, Meloidogyne incognita. To be noted: Fig 1C; J2s incubated in 100 μM uNLP for 24 h; stylet thrusts in 5 mM serotonin, counted 1 min; normalised to control = 100%; mean, at least 30 J2s. On the procedure: as §1
(§4) Stylet thrusting assays where performed by incubating 100 M. incognita or G. pallida J2s for 15 minute in 5 mM or 2 mM serotonin (Sigma Aldrich, USA), respectively. J2s were placed on a glass slide and stylet thrusts were counted for randomly selected J2s, for 1 minute each. Counts for a given cohort of J2s were taken in a maximum interval of 15 minutes. Longer counting intervals, making for longer serotonin incubations, yielded inconsistent results. At least 30 J2s were counted for each neuropeptide treatment.

Assay [4] has as its system S. carpocapsae infective juveniles (IJs). The assay is described as follows: S. carpocapsae host-finding assay (non-target). To be noted: Fig 5E; chemotaxis towards insect host Galleria mellonella; 100 IJs incubated 24 h in 100 μM uNLP; n = 5; control 0.2315. It is filed as in vivo, Steinernema carpocapsae. On the procedure:
S. carpocapsae were cultured in Galleria mellonella at 23°C. Infective juveniles (IJs) were collected using a White trap in PBS. Freshly emerged IJs were used for each assay. 100 IJs were incubated for 24 hours in 100 μM of selected uNLPs, and host-finding assays (n = 5) performed as in Morris et al..

Assay [5] deals with M. incognita J2s. The assay is described as follows: Chemosensory (chemotaxis) assay of uNLP pre-treated J2s towards tomato root exudate. The class given is in vivo, Meloidogyne incognita. The settings on record: for CI score: Fig 1A, J2s incubated in 100 μM uNLP for 24 h, tomato cv. Moneymaker root exudate vs water agar plugs, counted after 3 h, mean of 10 replicates of 100 J2s, control 0.4426. On the procedure:
as §1, §3

For assay [6], the system named is M. incognita J2s. Briefly: Plant protection assay, B. subtilis secreting uNLPs. It is filed as in vivo, Meloidogyne incognita. To be noted: Fig 4B; peptide secreted by transgenic B. subtilis culture in tomato invasion arena with 500 J2s; control = 100%; mean. On the procedure:
as §2
(§5) B. subtilis were grown overnight in LB media containing ampicillin (100 μg/ml) at 37°C with shaking, and harvested in the log phase of growth determined by measuring OD600nm. Five ml of culture at 0.5 OD was spun down and the pellet mixed with 3 ml of agar slurry and 500 J2s from either G. pallida or M. incognita. C. reinhardtii clones were grown at 23°C with shaking, cultures in the log phase were measured at OD750 and 5 ml of culture at 0.5 OD was pelleted by centrifugation. C. reinhardtii pellets were mixed with 3 ml of agar slurry and 500 J2s from either G. pallida or M. incognita. Plant invasion assays were performed as described above. […]

In assay [7] the test system is M. incognita J2s. Briefly: Plant protection assay, C. reinhardtii secreting uNLPs. It is filed as in vivo, Meloidogyne incognita. The settings on record: Fig 4A; peptide secreted by transgenic C. reinhardtii culture in tomato invasion arena with 500 J2s; relative to untransformed C. reinhardtii = 100%; mean. As for the experimental part:
as §2, §5

For assay [8], the system named is M. incognita J2s. The assay is described as follows: Tomato invasion assay with uNLP pre-treated J2s. It is filed as in vivo, Meloidogyne incognita. As for the experimental part:
as §1, §2

Assay [9] concerns G. pallida J2s. Briefly: Serotonin-induced stylet thrusting assay. The class given is in vivo, Globodera pallida. As for the experimental part:
as §1, §4

The mark [10] stands for this setting: Fig 5A, attractant sodium acetate (50 mM), control 0.4269.
Setting [11] is: Fig 5B, attractant pyrazine (0.5%), control 0.4904.
Setting [12] is: Fig 5C, attractant benzaldehyde (0.5%), control 0.7026.
The mark [13] stands for this setting: Fig 5D, attractant diacetyl (0.5%), control 0.6638.
The mark [14] stands for this setting: 100 μM uNLP, 24 h, relative to controls.

With “SGIQTFRDDYDEKQAGEL [Gp-NLP-21d, predicted unamidated NLP of G. pallida, synthesised]”, the “% Invasion” value in the assay on G. pallida J2s [1] was 2.01%.

Consider “GGARAFNFFAPDE [Gp-NLP-21b, predicted unamidated NLP of G. pallida, synthesised]”, for which the CI score in the assay on G. pallida J2s [2] is recorded as -0.117. Besides, in the assay on G. pallida J2s [1], the “% Invasion” value is on record as 6.90%.

Take “AGGRYFMRHFDDSPFAGWMA [Gp-NLP-21g, predicted unamidated NLP of G. pallida, synthesised]”: in the assay with G. pallida J2s [2], the CI score is listed as -0.01357. In the assay on G. pallida J2s [1], the “% Invasion” value was 214.80%.

Regarding “MVSWQPV [Mi-NLP-40, predicted unamidated NLP of M. incognita, synthesised; also secreted from transgenic B. subtilis]”, the CI score with mixed-stage C. elegans (setting [10]) is listed as 0.482; in the assay on mixed-stage C. elegans (setting [11]) it was 0.5018; with mixed-stage C. elegans (setting [12]), 0.6686; in the assay on mixed-stage C. elegans (setting [13]), 0.5858; in assay [4], 0.3057; in the assay with M. incognita J2s [5], -0.04. Moreover, in the assay with M. incognita J2s [3], the “% Thrusting” value is 210%. Also, the “% Invasion” value in the assay on M. incognita J2s [6] was determined as 23.72%.

Turning to “GGGRYFIRPFADQ [Mi-NLP-9f, predicted unamidated NLP of M. incognita, synthesised; also secreted from transgenic C. reinhardtii]”, the CI score with mixed-stage C. elegans (setting [10]) is 0.5261; in the assay with mixed-stage C. elegans (setting [11]), 0.4599; with mixed-stage C. elegans (setting [12]), 0.7463; in the assay with mixed-stage C. elegans (setting [13]) it was 0.6; in assay [4], 0.2462; in the assay with M. incognita J2s [5] it was -0.26. Further, the “% Invasion” value was 10.32% in the assay on M. incognita J2s [7] and 28.22% in the assay on M. incognita J2s [8] (Fig 1B, 500 J2s incubated in 100 μM uNLP for 24 h, single tomato seedling, 24 h at 23°C, normalised to negative control = 100%, mean). For the same substance, the “effect on chemosensation (in words)” value in the assay on M. incognita J2s [5] (setting [14]) was “inhibit chemosensation; also recorded: inhibited”. Also, the “effect on host invasion (in words)” value with M. incognita J2s [8] (100 μM uNLP, 24 h, tomato cv. Moneymaker, relative to controls) is recorded as “inhibited”.

Regarding “GGARAFNFFAPPDE [Gp-NLP-21a, predicted unamidated NLP of G. pallida, synthesised]”, the “% Invasion” value in the assay with G. pallida J2s [1] was 178.90%.

For “GGTRAFNFFVSDALPSSYE [Gp-NLP-21c, predicted unamidated NLP of G. pallida, synthesised]”, the “% Invasion” value in the assay on G. pallida J2s [1] turned out to be 14.07%.

Take “GGARAFFGDADGPFNSASYWAP [Gp-NLP-21h, predicted unamidated NLP of G. pallida, synthesised]”: in the assay on G. pallida J2s [2] (setting [14]), the “effect on chemosensation (in words)” value is “inhibit chemosensation”. The CI score in the assay on G. pallida J2s [2] was -0.01564. The “effect on serotonergic-induced stylet thrusting (in words)” value in the assay on G. pallida J2s [9] (100 μM uNLP, 24 h, 2 mM serotonin, relative to controls) is reported as “modulating stylet thrusting rates”. In addition, in the assay with G. pallida J2s [9] (Fig 2C, J2s incubated in 100 μM uNLP for 24 h, stylet thrusts in 2 mM serotonin, counted 1 min, normalised to control = 100%, mean, at least 30 J2s), the “% Thrusting” value is on record as 116.80%.
